# Data from US20230329283A1 (priority 2021, published 2023).
# What was measured:
# [1] = system: colon bacillus (Escherichia coli); type: cell-based
# [2] = system: four bacterial suspensions (Escherichia coli, Salmonella, Staphylococcus aureus and Clostridium perfringens); type: cell-based; conditions: trypsin 250U/mL, pH 8.0, 37° C., 30-180 min, TrSub at MIC, FIG. 5B
# Clostridium perfringens [3] = type: cell-based; conditions: 16 hours at 37° C., 105 CFU/mL, minimum concentration making the hole clear
# salmonella [4] = assay: Minimum bactericidal concentration (MBC); type: cell-based; conditions: concentration inhibiting growth of 99.9% bacteria, 16h culture on solid medium
# [5] = system: colon bacillus (Escherichia coli); conditions: concentration inhibiting growth of 99.9% bacteria, 16h culture on solid medium
# salmonella [6] = type: cell-based
# Clostridium perfringens [7] = type: cell-based; conditions: concentration inhibiting growth of 99.9% bacteria, 16h culture on solid medium
# [8] = system: Four indicator bacteria (Escherichia coli, Salmonella, Staphylococcus aureus and Clostridium perfringens); type: cell-based; conditions: FIG. 4
# [9] = system: four bacterial suspensions (Escherichia coli, Salmonella, Staphylococcus aureus and Clostridium perfringens); type: cell-based; conditions: pepsin 3000 U/mL, pH 2.0, 37° C., 30-180 min, FIG. 5A
# [10] = system: Escherichia coli, Salmonella, Staphylococcus aureus and Clostridium perfringens; type: cell-based; conditions: on Escherichia coli
substance,measurement,setting,value
TrSub (EFGAGKAQCAAAWLQCASGGTLGCGGGAVACQNYRQFQCRAA; the amino acid sequence of the recombinant antimicrobial peptide TrSub),MIC Gram-negative bacteria colon bacillus,[1],37.5 mg/L
same,stability to trypsin,[2],poor
same,inhibition rate of the two Gram-positive bacteria after trypsin treatment,[2]; Gram-positive bacteria,about 80%
same,MIC Gram-positive bacteria Clostridium perfringens,Clostridium perfringens [3],25 mg/L
same,MBC Gram-negative bacteria salmonella,salmonella [4],75 mg/L
same,MBC Gram-negative bacteria colon bacillus,[5],37.5 mg/L
same,MIC Gram-negative bacteria salmonella,salmonella [6],37.5 mg/L
same,MBC Gram-positive bacteria Clostridium perfringens,Clostridium perfringens [7],25 mg/L
same,change in the inhibition rate of each bacterium after heat treatment,[8]; boiling water for 20 min,almost no change
same,inhibition rate after heat treatment,"[8]; boiling water, 25 min treatment",about 80%
same,inhibition rate to various bacteria after being treated by pepsin,[9]; TrSub at MIC,above 80%
same,stability to pepsin,[9],good stability
same,antibacterial activity of the expression product,[10],inhibitory effect
